Experimental data published in patent publication US10766869B2, “Triazoles for the treatment of demyelinating dieases” (Vertex Pharmaceuticals Incorporated, priority 2015, dated 2020).
Read-outs that look alike come from different tables or passages of the source.

Tested on: primary rat mixed cortical cells
Assay: In vitro myelination assay (MBP positive myelin strands, fold myelin pixels above background)
Type: cell-based
Conditions: Rattus norvegicus; for fold induction at 1 µM: 1.0 μM compound; for fold induction at 10 µM: 10.0 μM compound
Procedure, shortened: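 Fourteen-day treatment of primary P1 rat mixed cortical cultures, re-dosed at days 6 and 10, at 1.0 μM and 10.0 μM. MBP immunofluorescence was imaged at 10× and myelin strands quantified by software, normalised to untreated wells as fold above background.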

[1] = relative to baseline of no added compound, read-out: Fold myelin pixels above background
[2] = relative to baseline of no added compound, read-out: Fold myelin pixels above background, 1.0 μM
[3] = relative to baseline of no added compound, read-out: Fold myelin pixels above background, 10.0 μM
[4] = read-out: Fold myelin pixels above background relative to baseline of no added compound

Structure (SMILES) | fold induction at 1 µM [1] | fold induction at 10 µM [1] | fold induction at 1 µM [2] | fold induction at 10 µM [3] | also measured
Cc1cc(Nc2ncn(-c3cc(F)cc(F)c3)n2)cc(N2C3COCC2C3)c1 [Compound 694, 1-(3,5-difluorophenyl)-N-[3-methyl-5-(3-oxa-6-azabicyclo[3.1.1]heptan-6-yl)phenyl]-1,2,4-triazol-3-amine] | 10 to 100 | ≤ 1 |  |  | 
COC1CN(c2cc(F)cc(-n3cnc(Nc4cc(C5CC5)cc(N5CCN(C6COC6)CC5)c4)n3)c2)C1 [Compound 494, N-[3-cyclopropyl-5-[4-(oxetan-3-yl)piperazin-1-yl]phenyl]-1-[3-fluoro-5-(3-methoxyazetidin-1-yl)phenyl]-1,2,4-triazol-3-amine] | 100 to 1000 | 10 to 100 |  |  | 
Cc1cc(Nc2ncn(-c3cc(F)cc(F)c3)n2)cc(O[C@@H]2CCN(C3COC3)C2)c1 [Compound 178, 1-(3,5-difluorophenyl)-N-[3-methyl-5-[(3R)-1-(oxetan-3-yl)pyrrolidin-3-yl]oxy-phenyl]-1,2,4-triazol-3-amine] |  |  | 1000 to 10000 | 1 to 10 | 
Cc1cc(Nc2ncn(-c3cc(F)cc(F)c3)n2)cc(N2CCC(OC(C)C)CC2)c1 [Compound 1019, 1-(3,5-difluorophenyl)-N-[3-(4-isopropoxy-1-piperidyl)-5-methyl-phenyl]-1,2,4-triazol-3-amine] |  |  |  |  | fold induction at 1 µM [4]: 1 to 10; fold induction at 10 µM [4]: 10 to 100
COc1nccc(-n2cnc(Nc3cc(C)cc(N4CCN(C5COC5)CC4)c3)n2)n1 [Compound 30, 1-(2-methoxypyrimidin-4-yl)-N-[3-methyl-5-[4-(oxetan-3-yl)piperazin-1-yl]phenyl]-1,2,4-triazol-3-amine] |  |  | ≤ 1 | 100 to 1000 | 
CN(C)C1CCN(c2cc(F)cc(Nc3ncn(-c4ccc(F)cc4F)n3)c2)C1 (stereo not drawn) [Compound 347, 1-(2,4-difluorophenyl)-N-[3-[3-(dimethylamino)pyrrolidin-1-yl]-5-fluoro-phenyl]-1,2,4-triazol-3-amine] |  |  | ≤ 1 | ≤ 1 | 
Cc1cc(Nc2ncn(-c3cccc(C(F)(F)F)c3)n2)nc(N2CCN(C3COC3)CC2)c1 [Compound 578, 4-methyl-6-[4-(oxetan-3-yl)piperazin-1-yl]-N-[1-[3-(trifluoromethyl)phenyl]-1,2,4-triazol-3-yl]pyridin-2-amine] | 1 to 10 | 10 to 100 |  |  | 
COc1c(F)cc(-n2cnc(Nc3cc(C)cc(N4CCN(C5COC5)CC4)c3)n2)cc1F [Compound 646, 1-(3,5-difluoro-4-methoxy-phenyl)-N-[3-methyl-5-[4-(oxetan-3-yl)piperazin-1-yl]phenyl]-1,2,4-triazol-3-amine] | 10 to 100 | 1 to 10 |  |  | 
Cc1cc(CN2CCN(C3COC3)CC2)cc(Nc2ncn(-c3cc(F)cc(F)c3)n2)c1 [Compound 596, 1-(3,5-difluorophenyl)-N-[3-methyl-5-[[4-(oxetan-3-yl)piperazin-1-yl]methyl]phenyl]-1,2,4-triazol-3-amine] | 10 to 100 | 10 to 100 |  |  | 
COc1ccc(-n2cnc(Nc3cc(F)cc(N4CCN(C5COC5)CC4)c3)n2)cc1F [Compound 781, 1-(3-fluoro-4-methoxy-phenyl)-N-[3-fluoro-5-[4-(oxetan-3-yl)piperazin-1-yl]phenyl]-1,2,4-triazol-3-amine] | 1 to 10 | ≤ 1 |  |  | 
CC(=O)N1CCCN(c2cc(C)cc(Nc3ncn(-c4ccccc4)n3)c2)CC1 [Compound 280, 1-[4-[3-methyl-5-[(1-phenyl-1,2,4-triazol-3-yl)amino]phenyl]-1,4-diazepan-1-yl]ethanone] |  |  | 1000 to 10000 | 10 to 100 | 
CCc1cc(Nc2ncn(-c3ccc(C)c(F)c3)n2)cc(N2CCN(C3COC3)CC2)c1 [Compound 761, N-[3-ethyl-5-[4-(oxetan-3-yl)piperazin-1-yl]phenyl]-1-(3-fluoro-4-methyl-phenyl)-1,2,4-triazol-3-amine] | 1 to 10 | ≤ 1 |  |  | 
Fc1cc(-n2cnc(Nc3cc(C4CC4)cc(N4CCN(C5COC5)CC4)c3)n2)cc(F)n1 [Compound 121, N-[3-cyclopropyl-5-[4-(oxetan-3-yl)piperazin-1-yl]phenyl]-1-(2,6-difluoro-4-pyridyl)-1,2,4-triazol-3-amine] |  |  | 100 to 1000 | ≤ 1 | 
Cc1cc(Nc2ncn(-c3cc(F)cc(F)c3)n2)cc(N2CCOC2=O)c1 [Compound 517, 3-[3-[[1-(3,5-difluorophenyl)-1,2,4-triazol-3-yl]amino]-5-methyl-phenyl]oxazolidin-2-one] | 10 to 100 | 10 to 100 |  |  | 
COCC1CCN(c2cc(C)cc(Nc3ncn(-c4ccncn4)n3)c2)CC1 [Compound 464, N-[3-[4-(methoxymethyl)-1-piperidyl]-5-methyl-phenyl]-1-pyrimidin-4-yl-1,2,4-triazol-3-amine] | 10 to 100 | 100 to 1000 |  |  | 
CS(=O)(=O)c1cc(Nc2ncn(-c3cc(F)cc(F)c3)n2)cc(N2CCN(C3COC3)CC2)c1 [Compound 344, 1-(3,5-difluorophenyl)-N-[3-methylsulfonyl-5-[4-(oxetan-3-yl)piperazin-1-yl]phenyl]-1,2,4-triazol-3-amine] |  |  | 100 to 1000 | 10 to 100 | 
Cc1cc(Nc2ncn(-c3ccncn3)n2)cc(C2CCCN(C3COC3)C2)c1 (stereo not drawn) [Compound 180, N-[3-methyl-5-[1-(oxetan-3-yl)-3-piperidyl]phenyl]-1-pyrimidin-4-yl-1,2,4-triazol-3-amine] |  |  | 100 to 1000 | ≤ 1 | 
CCc1cc(Nc2ncn(-c3cc(F)ccc3F)n2)cc(N2CCN(C3COC3)CC2)c1 [Compound 417, 1-(2,5-difluorophenyl)-N-[3-ethyl-5-[4-(oxetan-3-yl)piperazin-1-yl]phenyl]-1,2,4-triazol-3-amine] | 100 to 1000 | 1000 to 10000 |  |  | 
CN1CCN(c2cc(Nc3ncn(-c4cccc(F)c4)n3)cc(C(F)(F)F)c2)CC1 [Compound 257, 1-(3-fluorophenyl)-N-[3-(4-methylpiperazin-1-yl)-5-(trifluoromethyl)phenyl]-1,2,4-triazol-3-amine] |  |  | 100 to 1000 | ≤ 1 | 
Cc1cc(Nc2ncn(-c3cc(F)cc(F)c3)n2)cc(O[C@H]2CCN(C3COC3)C2)c1 [Compound 304, 1-(3,5-difluorophenyl)-N-[3-methyl-5-[(3S)-1-(oxetan-3-yl)pyrrolidin-3-yl]oxy-phenyl]-1,2,4-triazol-3-amine] |  |  | 100 to 1000 | ≤ 1 | 
Cc1cc(NCC2COCCO2)cc(Nc2ncn(-c3cc(F)cc(F)c3)n2)c1 (stereo not drawn) [Compound 932, N1-[1-(3,5-difluorophenyl)-1,2,4-triazol-3-yl]-N3-(1,4-dioxan-2-ylmethyl)-5-methyl-benzene-1,3-diamine] |  |  |  |  | fold induction at 1 µM [4]: 1 to 10; fold induction at 10 µM [4]: ≤ 1
FC(F)(F)c1cc(Nc2ncn(-c3cnccn3)n2)cc(N2CCN(C3COC3)CC2)c1 [Compound 514, N-[3-[4-(oxetan-3-yl)piperazin-1-yl]-5-(trifluoromethyl)phenyl]-1-pyrazin-2-yl-1,2,4-triazol-3-amine] | 10 to 100 | 100 to 1000 |  |  | 
FC(F)(F)c1cc(Nc2ncn(-c3ccccn3)n2)nc(N2CCN(C3COC3)CC2)c1 [Compound 548, 6-[4-(oxetan-3-yl)piperazin-1-yl]-N-[1-(2-pyridyl)-1,2,4-triazol-3-yl]-4-(trifluoromethyl)pyridin-2-amine] | 1 to 10 | 1 to 10 |  |  | 
Cc1cc(Nc2ncn(-c3cc(F)cc(F)c3)n2)nc(N2CC3(CCO3)C2)c1 [Compound 571, N-[1-(3,5-difluorophenyl)-1,2,4-triazol-3-yl]-4-methyl-6-(3-oxa-6-azaspiro[3.3]heptan-6-yl)pyridin-2-amine] | ≤ 1 | 1 to 10 |  |  | 
Cc1cc(Nc2ncn(-c3cnccn3)n2)cc(N2CC(N3CCCOCC3)C2)c1 [Compound 825, N-[3-methyl-5-[3-(1,4-oxazepan-4-yl)azetidin-1-yl]phenyl]-1-pyrazin-2-yl-1,2,4-triazol-3-amine] |  |  |  |  | fold induction at 1 µM [4]: 10 to 100; fold induction at 10 µM [4]: 10 to 100
FC(F)c1cc(Nc2ncn(-c3ccccc3)n2)nc(N2CCN(C3COC3)CC2)c1 [Compound 526, 4-(difluoromethyl)-6-[4-(oxetan-3-yl)piperazin-1-yl]-N-(1-phenyl-1,2,4-triazol-3-yl)pyridin-2-amine] | 100 to 1000 | 10 to 100 |  |  | 
Cc1cc(Nc2ncn(-c3cc(F)cc(F)c3)n2)cc(N2CCNCC2=O)c1 [Compound 93, 1-[3-[[1-(3,5-difluorophenyl)-1,2,4-triazol-3-yl]amino]-5-methyl-phenyl]piperazin-2-one] |  |  | 10 to 100 | 100 to 1000 | 
N#Cc1cc(Nc2ncn(-c3cc(F)cc(F)c3)n2)cc(N2CCOCC2)c1 [Compound 835, 3-[[1-(3,5-difluorophenyl)-1,2,4-triazol-3-yl]amino]-5-morpholino-benzonitrile] |  |  |  |  | fold induction at 1 µM [4]: 1 to 10; fold induction at 10 µM [4]: 10 to 100
Cc1cc(Nc2ncn(-c3ccc(F)c(F)c3)n2)cc(OCc2ccn(C)n2)c1 [Compound 714, 1-(3,4-difluorophenyl)-N-[3-methyl-5-[(1-methylpyrazol-3-yl)methoxy]phenyl]-1,2,4-triazol-3-amine] | 10 to 100 | 10 to 100 |  |  | 
Cc1cc(Nc2ncn(-c3ccccc3Cl)n2)cc(N2CCN(C3COC3)CC2)c1 [Compound 446, 1-(2-chlorophenyl)-N-[3-methyl-5-[4-(oxetan-3-yl)piperazin-1-yl]phenyl]-1,2,4-triazol-3-amine] | 1 to 10 | 1000 to 10000 |  |  | 
